Assay results: patent US8722731B2, “Furanyl compounds and the use thereof” (NovoMedix, LLC, priority 2010, dated 2014)
Where two headings read alike, the source gives them in different places.

How the values were obtained:
RT-4 = test: IC50 cell-based assay, adherent cells, RT-4; details: Homo sapiens, Bladder, papilloma, 72 hours, read-out: IC50 of Compounds in Adherent Cell Types
Experimental: (§1) In one embodiment, the IC50s of the compounds provided herein were determined in cell-based assays using adherent cells. In one embodiment, the activity of the compounds provided herein were determined in a cell-based assay using the triple negative breast cancer cell line MDA-MB-468. In one embodiment, the adherent cells used in the cell-based assays may be a cell type selected from Table 1. In one embodiment, the cell-based assay may be carried out as provided herein. On day 0, cells were seeded at 20,000 cells per well in 100 µL of media into individual wells of a 96-well tissue culture plate. The next day, compounds were diluted to twice the desired final concentration and added in 100 µL of media for a final volume of 200 μL. Standard solutions for each compound were prepared at 1000× concentration in DMSO. The highest concentration was 30 mM. Serial 1:1 dilutions were made from there for a 6- or 9-point curve (e.g., 30 mM, 15 mM, 7.5 mM, etc). Compounds were then diluted 1:500 in media, and 100 µL of the resulting solution was added to each well for a final dilution of 1:1000. Each concentration of compound was tested in triplicate. Cells were incubated at 37° C. with 5% CO2. After 72 hours, 20 μL of CellTiter 96 Aqueous One Solution Cell Proliferation Assay (Promega) was added to each well. Cells were placed back in the incubator, and the absorbance at 490 nm was read after 2-3 hours. The concentration of compound that decreased the number of metabolically active cells by 50% was determined and reported as the IC50. “Percent Viability” was determined by subtracting the average background value (media only) and expressed as a ratio to the average value obtained from cells treated with only DMSO.

U87-MG = test: IC50 cell-based assay, adherent cells, U87-MG; details: Homo sapiens, U-87 MG, Brain, glioblastoma, 72 hours, read-out: IC50 of Compounds in Adherent Cell Types
Experimental: as §1

[1] = tested on: triple negative breast cancer cell line MDA-MB-468; test: IC50 cell-based assay, adherent cells, MDA-MB-468; details: Homo sapiens
Experimental: as §1
The IC50s of the compounds provided herein were determined in cell-based assay using triple negative breast cancer cell line MDA-MB-468.

MCF-7 = test: IC50 cell-based assay, adherent cells, MCF-7; details: Homo sapiens, MCF7, Breast, ER+, 72 hours, read-out: IC50 of Compounds in Adherent Cell Types
Experimental: as §1

SKBR-3 = test: IC50 cell-based assay, adherent cells, SKBR-3; details: Homo sapiens, SK-BR-3, Breast, ER−, 72 hours, read-out: IC50 of Compounds in Adherent Cell Types
Experimental: as §1

MDA-MB-361 = test: IC50 cell-based assay, adherent cells, MDA-MB-361; details: Homo sapiens, Breast, Brain met Her2-neu + ER +, 72 hours, read-out: IC50 of Compounds in Adherent Cell Types
Experimental: as §1

MDA-MB-231 = test: IC50 cell-based assay, adherent cells, MDA-MB-231; details: Homo sapiens, Breast, triple neg, 72 hours, read-out: IC50 of Compounds in Adherent Cell Types
Experimental: as §1

1937 = test: IC50 cell-based assay, adherent cells, 1937; details: Breast, triple neg, 72 hours, read-out: IC50 of Compounds in Adherent Cell Types
Experimental: as §1

HT-29 = test: IC50 cell-based assay, adherent cells, HT-29; details: Homo sapiens, Colorectal, adenocarcinoma, 72 hours, read-out: IC50 of Compounds in Adherent Cell Types
Experimental: as §1

SK-MEL-28 = test: IC50 cell-based assay, adherent cells, SK-MEL-28; details: Homo sapiens, Melanoma, 72 hours, read-out: IC50 of Compounds in Adherent Cell Types
Experimental: as §1

Caki-1 = test: IC50 cell-based assay, adherent cells, Caki-1; details: Homo sapiens, Kidney, clear cell carc., skin met, 72 hours, read-out: IC50 of Compounds in Adherent Cell Types
Experimental: as §1

Hep-G2 = test: IC50 cell-based assay, adherent cells, Hep-G2; details: Homo sapiens, HepG2, Liver, hepatocellular carcinoma, 72 hours, read-out: IC50 of Compounds in Adherent Cell Types
Experimental: as §1

A549 = test: IC50 cell-based assay, adherent cells, A549; details: Homo sapiens, Lung, NSCLC, 72 hours, read-out: IC50 of Compounds in Adherent Cell Types
Experimental: as §1

H-460 = test: IC50 cell-based assay, adherent cells, H-460; details: Homo sapiens, NCI-H460, Lung, large cell carcinoma, 72 hours, read-out: IC50 of Compounds in Adherent Cell Types
Experimental: as §1

OVCAR-3 = test: IC50 cell-based assay, adherent cells, OVCAR-3; details: Homo sapiens, Ovarian, adenocarcinoma, 72 hours, read-out: IC50 of Compounds in Adherent Cell Types
Experimental: as §1

AsPC-1 = test: IC50 cell-based assay, adherent cells, AsPC-1; details: Homo sapiens, ASPC1, Pancreas, carcinoma, 72 hours, read-out: IC50 of Compounds in Adherent Cell Types
Experimental: as §1

Panc-1 = test: IC50 cell-based assay, adherent cells, Panc-1; details: Homo sapiens, Pancreas, epitheloid carcinoma, 72 hours, read-out: IC50 of Compounds in Adherent Cell Types
Experimental: as §1

FaDu = test: IC50 cell-based assay, adherent cells, FaDu; details: Homo sapiens, Pharynx, squamous cell, 72 hours, read-out: IC50 of Compounds in Adherent Cell Types
Experimental: as §1

A431 = test: IC50 cell-based assay, adherent cells, A431; details: Homo sapiens, A-431, Skin, epidermoid carcinoma, 72 hours, read-out: IC50 of Compounds in Adherent Cell Types
Experimental: as §1

HL-60 = test: IC50 cell-based assay, suspension cells, HL-60; details: Homo sapiens, Leukemia, AML, read-out: IC50 of Compounds in Suspension Cell Types
Experimental: as §1
(§2) In one embodiment, the IC50s of the compounds provided herein were determined in cell-based assays using suspension cells. In one embodiment, the activity of the compounds provided herein were determined in a cell-based assay using the JeKo-1 cell line (mantle cell lymphoma) or the Pfeiffer cell line (diffuse large B-cell lymphoma). In one embodiment, the suspension cells used in the cell-based assays may be a cell type selected from Table 2. Assays with suspension cells were similar except that 40,000-60,000 cells were added to each well and compounds were added immediately after cell plating.

MHH-CALL-4 = test: IC50 cell-based assay, suspension cells, MHH-CALL-4; details: MHHCALL4, Leukemia, B-ALL (CRLF2 Hi), read-out: IC50 of Compounds in Suspension Cell Types
Experimental: as §1, §2

Kg1a = test: IC50 cell-based assay, suspension cells, Kg1a; details: Homo sapiens, KG-1a, Leukemia, AML, read-out: IC50 of Compounds in Suspension Cell Types
Experimental: as §1, §2

Nalm-6 = test: IC50 cell-based assay, suspension cells, Nalm-6; details: Homo sapiens, Leukemia, B-ALL, read-out: IC50 of Compounds in Suspension Cell Types
Experimental: as §1, §2

Nalm-6-VR = test: IC50 cell-based assay, suspension cells, Nalm-6-VR; details: Leukemia, B-ALL, Vincristine resistant, read-out: IC50 of Compounds in Suspension Cell Types
Experimental: as §1, §2

SupB15 = test: IC50 cell-based assay, suspension cells, SupB15; details: Homo sapiens, SUP-B15, Leukemia, B-ALL (Philadelphia chromosome+), read-out: IC50 of Compounds in Suspension Cell Types
Experimental: as §1, §2

Z138, JeKo-1 = test: IC50 cell-based assay, suspension cells, Z138, JeKo-1; details: Lymphoma, Mantle cell, read-out: IC50 of Compounds in Suspension Cell Types
Experimental: as §1, §2

Pfeiffer = test: IC50 cell-based assay, suspension cells, Pfeiffer; details: Homo sapiens, Lymphoma, Diffuse large b-cell, read-out: IC50 of Compounds in Suspension Cell Types
Experimental: as §1, §2

Measured: IC50

O=C(Nc1cc(F)cc(C(F)(F)F)c1)c1cc(-c2ccccc2)oc1C(F)(F)F [Compound 6, 5-Phenyl-2-trifluoromethyl-furan-3-carboxylic acid (3-fluoro-5-trifluoromethyl-phenyl)-amide]
10 to 20 µM: U87-MG | MDA-MB-361 | MHH-CALL-4 | Kg1a | Pfeiffer
4 µM: [1]; MDA-MB-468 cells, Table 3, read-out: IC50 of Compounds in MDA-MB-468 Cells
5 to 10 µM: MCF-7 | MDA-MB-231 | 1937 | SK-MEL-28 | Caki-1 | A549 | OVCAR-3 | AsPC-1 | Panc-1 | FaDu | A431 | HL-60 | SupB15 | Z138, JeKo-1
< 5 µM: [1]; MDA-MB-468, Breast, triple neg, 72 hours, Table 1, read-out: IC50 of Compounds in Adherent Cell Types | SKBR-3 | Nalm-6 | Nalm-6-VR
> 20 µM: RT-4 | HT-29 | Hep-G2 | H-460
